Experimental data published in patent publication US20250388542A1, “ANALOGUES OF PENTAMIDINE AND USES THEREFOR” (Auransa Inc., priority 2018, published 2025).
Values joined by “and” are separate entries in the source; they are usually repeats but may differ in a detail not shown here. Identical values can stand only once. “Also recorded” adds a separate entry of the source.

How the values were obtained:
[1] = test system: Hep3B2.1-7-Luc liver orthotopic model; test: Liver orthotopic in vivo analysis; details: for mean Total Flux: Q3D for a week then QD three weeks, day 28 post grouping; for Whole liver (with tumor) weights: individual animals 1-8; for Tumor sizes vs vehicle: nonparametric ANOVA followed by Kruskal-Wallis test; for Tumor sizes (signal intensity) vs vehicle: two-way ANOVA and Bonferroni post-test
Protocol: In this study, the in vivo therapeutic effect of Compound 1 on liver cancer was evaluated in an orthotopic mouse model using Hep3B2.1-7-Luc cell line. Three groups of orthotopic model in BALB/c nude mice were treated with vehicle, Compound 1 at 10 mg/kg, and Compound 1 at 20 mg/kg orally (p.o.) Q3D for a week followed by QD for three weeks. The mean Total Flux (photons/s/10^6) of the mice in vehicle control group reached 1223.01 photons/s/10^6 at day 28 post grouping. The mean Total Flux (photons/s/10^6) was 464.74 and 306.74 for Compound 1 (10 mg/kg) group and Compound 1 (20 mg/kg) group at day 28 post grouping.
A One-way ANOVA combined with Dunnett post-test was performed to compare the results of serum-derived blood chemistries (including ALT, AST, ALP, TP, ALB, UA, UREA, Glu, TC, TG, Ca, Mg, P, CK, LDH, GLB, A/G and CREA) among vehicle and treatment groups. A nonparametric ANOVA followed by Kruskal-Wallis test was performed to compare serum-derived blood chemistries (including ALT, AST and ALP) among vehicle and treatment groups.

[2] = Tolerance in non-tumor bearing BALB/c nude mice; format: in vivo
Protocol: The objective of this research is to assess Compound 1 tolerance in non-tumor bearing mice in BALB/c nude mice. Compound 1 exposure in plasma, liver, kidney, colon and bladder as well as serum-derived blood chemistries were tested.
Thirty-six (36) female BALB/c nude mice of age 6-8 weeks having body weight of around 19-23 g were kept in individual ventilation cages at constant temperature (20˜26° C.) and humidity (40-70%) with 3 animals per cage. Animals had free access to irradiation sterilized dry granule food and sterile drinking water during the entire study period.
After grouping, the animals were checked daily for morbidity and mortality. At the time of routine monitoring, the animals were measured for any effects on behavior such as mobility, food and water consumption, body weight gain/loss. Body weights were measured daily. Death and other clinical signs were recorded.
Animals from each group were tested and samples collected at two different time points for blood chemistry tests as well as compound concentration in plasma, kidney, liver, colon and bladder. The first sampling was performed right before the last dose (0 h) on Day 21; and the second sampling was performed 1 hour after the last dose (1 h) on day 21. Detailed descriptions for sampling methods are as follows: […]

[3] = test system: HUH7; test: CellTiter-Glo cell viability, liver cell lines, 8 days; format: cell-based; details: Homo sapiens, Huh-7, 192 h; HUH7, 8 days
Protocol: (§1) The objective of this study is to investigate the effect of Compound 1 on cell viability of various types of liver cancer. Ten (10) different liver cancer cell lines were employed in the study. Each liver cell line shown in Table 4 was treated with Compound 1, pentamidine, as reference control, a standard of care (cisplatin) and culture medium contains 0.2% [v/v] DMSO vehicle control and IC50 values were obtained as described above. The raw data values from the CellTiter-Glo™ cell viability assay expressed in relative luminescence units were normalized to the vehicle for each individual plate, and any reduction in luminescence indicated a decrease in viability (%). The data was analyzed in GraphPad PRISM using a non-linear sigmoidal plot with variable slope (asymmetric four-point linear regression), and an IC50 value for each compound was generated. The experiment tested pentamidine, compound 1, and standard-of-care control Cisplatin in full growth media for 8 days. Cells were initially treated with the test compounds on Day 0, and the cells were then replenished with fresh compound dilutions on Day 3. Pentamidine, Compound 1, and cisplatin were tested at 9 concentration points; 100, 33.33, 11.11, 3.70, 1.23, 0.41, 0.14, 0.05, and 0.02 μM (final DMSO concentration=0.5%). In particular, the IC50 values of pentamidine and Compound 1 were 0.8 and 0.6 μM in Hep3B-luc, respectively.

[4] = test system: Hep3B; test: as above; format: cell-based; details: Homo sapiens, 192 h
Protocol: as §1

[5] = test system: HEP3B2.7-1; test: as above; format: cell-based; details: HEP3B2.7-1, Table 4
Protocol: as §1

[6] = test system: SK-HEP-1; test: as above; format: cell-based; details: Homo sapiens
Protocol: as §1

[7] = test system: HCCLM3; test: as above; format: cell-based; details: Homo sapiens, 192 h; HCCLM3, 8 days
Protocol: as §1

[8] = test system: HUH1; test: as above; format: cell-based; details: Homo sapiens, HuH-1, 192 h; HUH1, 8 days
Protocol: as §1

[9] = test system: MHCC97H; test: as above; format: cell-based; details: Homo sapiens, 192 h
Protocol: as §1

[10] = test system: HepG2; test: as above; format: cell-based; details: Homo sapiens, 192 h; HepG2, 8 days
Protocol: as §1

[11] = Human microsomal CL rate; format: in vitro ADME; details: human microsomes

Compound: N=C(N)c1ccc(OCCCCCOc2ccc(C(=N)N)nc2)cc1 [Compound 1, 5-(5-(4-carbamimidoylphenoxy)pentyloxy)picolinimidamide]
- tolerability, body weight loss ([1]; 10 mg/kg and 20 mg/kg p.o.): well tolerated in both 10 mg/kg and 20 mg/kg groups with no obvious body weight loss; also recorded: well tolerated at both doses level tested
- anti-tumor effect compared to vehicle group (Total Flux) ([1]; 10 mg/kg p.o.): significant anti-tumor effect at day 8 to day 18 and day 28
- mean Total Flux ([1]; 10 mg/kg p.o.): 464.74 photons/s/10^6
- Whole liver (with tumor) weights ([1]; 10 mg/kg): 1.334 g and 2.415 g and 2.602 g and 2.280 g and 3.035 g and 1.817 g and 2.019 g and 2.311 g
- Tumor sizes vs vehicle ([1]; 10 mg/kg): no significant difference during the treatment days
- Tumor sizes (signal intensity) vs vehicle ([1]; 10 mg/kg): significant difference at day 25 and extremely significant difference at day 28
- anti-tumor effect compared to vehicle group (Total Flux) ([1]; 20 mg/kg p.o.): significant anti-tumor effect at day 8 to day 28
- mean Total Flux ([1]; 20 mg/kg p.o.): 306.74 photons/s/10^6
- in vivo anti-tumor activity (summary) ([1]; 20 mg/kg, day 25 and day 28): significant in vivo anti-tumor activity
- Whole liver (with tumor) weights ([1]; 20 mg/kg): 1.681 g and 2.243 g and 1.645 g and 2.012 g and 1.926 g and 1.610 g and 1.603 g and 2.260 g
- Tumor sizes vs vehicle ([1]; 20 mg/kg): significant difference at day 28 and extremely significant difference at day 25
- Tumor sizes (signal intensity) vs vehicle ([1]; 20 mg/kg): extremely significant difference at day 22 to day 28
- levels of liver injury/damage markers ALT and AST ([1]; serum, 10 mg/kg and 20 mg/kg): significant reduction in levels of liver injury/damage markers, i.e., ALT and AST, in a dose dependent manner
- tolerability, body weight loss ([2]; 5 mg/kg QD, 10 mg/kg QD, 10 mg/kg Q2D and 20 mg/kg QD, PO, 21 days): well tolerated with no obvious body weight loss
- body weights compared with vehicle control group ([2]; 40 mg/kg QD PO, day 20 and 21): lower in a statistically significant manner at day 20 and 21
- IC50 [3]: 530 nM
- IC50 [4]: 180 nM
- IC50 [5]: 320 nM
- IC50 ([6]; SK-HEP1, SK-HEP-1, first listing in Table 4): 1400 nM
- IC50 ([6]; SK-HEP1, SK-HEP-1, second listing in Table 4): 630 nM
- IC50 [7]: 9650 nM
- IC50 [8]: 2950 nM
- IC50 [9]: 5320 nM
- IC50 [10]: 310 nM
- microsomal CLint [11]: 13.6 µL/min/mg
